Measurements published in paper PMC9081329, “Pharmacokinetics, Mass Balance, Excretion, and Tissue Distribution of Plasmalogen Precursor PPI-1011” (Frontiers in Cell and Developmental Biology, 2022).

Test: Repeat dose tissue distribution study (QWBA, LSC of blood and plasma), 15 daily doses
Type: in vivo, Sprague-Dawley rats
Protocol: Three male rats were administered [^14C]PPI-1011 at 100 mg/kg (100 μCi/kg) once daily for 15 days. One rat was sacrificed at each of the following time points after the administration of the day 15 dose: 24, 48, and 96 h. Terminal blood was collected by cardiac puncture directly into tubes with K2EDTA, an aliquot was stored at 4°C until LSC was performed for radioactivity, while the remaining blood was processed to plasma and stored at −20°C until LSC. Following blood collection, the carcasses were frozen in a cold bath with hexanes and dry ice for at least 8 min and then dried and stored at −70°C for at least 12 h. The carcasses were transferred to a −20°C freezer for at least 12 h before embedding.
QWBA was used to determine radioactivity concentrations in the caecum (contents and mucosa), large intestine (contents and mucosa), small intestine (contents and mucosa), stomach (contents and mucosa), brain, choroid plexus, spinal cord, bone, skin, adrenal gland, pineal body, pituitary gland, thyroid gland, liver, kidney (cortex, medulla and whole kidney), urinary bladder (contents and wall), brown fat, white fat, eye (lens, uveal tract and whole eye), epididymis, prostate gland, testis, ovary, uterus, lung, exorbital lachrymal gland, Harderian gland, pancreas, salivary gland, skeletal muscle, myocardium, cardiac blood, bone marrow, lymph node, spleen, and thymus. As well, LSC was used to determine the total radioactivity in the whole blood and plasma.
The whole-body cryosectioning technique described by ([Ullberg, 1977]) was the basis for embedding and cryosectioning the rats assigned to this study. Each frozen carcass was shaved, and then the limbs and tail were removed prior to embedding. Chilled (4°C) 3% CMC (low viscosity) was utilized to provide a firm support of reinforced ice around each rat and for a secure attachment to the microtome stage. Upon thorough freezing of the embedding medium surrounding each rat, the frozen CMC block was removed from the freezing bath and four 3/8 inch holes were drilled into the block. One cryosection quality control standard (CQCS) was prepared with a known amount of radioactivity and at least 1 ml aliquots were added to each of the four drilled holes. CQCS data were utilized to evaluate the overall performance of the QWBA assay.
Each frozen rat was sagittally trimmed (50–100 μm) at −20°C until exposure of a few target tissues employing a Leica Cryomacrocut heavy-duty microtome (Leica Microsystems Inc.,). Disposable stainless steel Feather type H45L knives (Feather Safety Razor Co., Ltd.) were utilized for trimming and sectioning each frozen rat. Several thinner sections (50 μm) were discarded prior to obtaining multiple 50 μm sections at various cryosectioning levels for QWBA analysis. Upon the collection of at least 60 target tissues in multiple cryosectioning levels, the cryosections were kept in the Cryomacrocut cryochamber for a minimum of 18 h for dehydration depending upon the number of cryosections within the cryochamber. After dehydration was complete, the cryosections were transferred to ambient temperature for processing. Mounted whole-body cryosections and a set of 15 standards were sandwiched between a standard phosphor screen and an exposure cassette. All cryosections were exposed to the phosphor screen for 4-days in a cabinet protected with lead prior to scanning using a Typhoon PhosphorImager (Cytiva). MCID™ Analysis software (InterFocus Ltd.) was utilized to generate a calibration curve of the STD nominal concentrations (nCi/g) versus PhosphorImager response (counts/μm^2 minus background) by weighted (1/x) linear regression analysis ([Potchoiba et al., 1995]; [Potchoiba et al., 1998]). The linear regression curve was then utilized to determine the concentration (nCi/g) of total radioactivity in whole-body tissues and blood. Radioactivity concentrations were expressed as μg Eq/g based on the specific activity of the compound in the final dose formulations. […]

[1] = 48 hr post 15 daily oral 100 mg/kg
[2] = 96 hr post 15 daily oral 100 mg/kg

With `CC/C=C\C/C=C\C/C=C\C/C=C\C/C=C\C/C=C\CCC(=O)O[C@H](CO[14CH2]CCCCCCCCCCCCCCC)COC(=O)CCCCC1CCSS1` (some centres unmarked) [[^14C]PPI-1011] the “Radioactivity concentration, Colliculus” value [1] was 68.0 μg equivalents/g, the “Radioactivity concentration, Diaphragm” value [1] was 172 μg equivalents/g and the “Radioactivity concentration, Esophagus” value [1] was 94.8 μg equivalents/g. For the same compound, the “Radioactivity concentration, Exorbital Lacrimal Gland” value [1] was 82.5 μg equivalents/g, the “Radioactivity concentration, Gastric Mucosa” value [1] was 307 μg equivalents/g and the “Radioactivity concentration, Harderian Gland” value [1] was 69.6 μg equivalents/g. For the same compound, the “Radioactivity concentration, Intra-Orbital Lacrimal Gland” value [1] was 84.5 μg equivalents/g, the “Radioactivity concentration, Kidney” value [1] was 221 μg equivalents/g and the “Radioactivity concentration, Large Intestines” value [1] was 122 μg equivalents/g. The “Radioactivity concentration, Liver” value [1] was 186 μg equivalents/g, the “Radioactivity concentration, Lung” value [1] was 181 μg equivalents/g and the “Radioactivity concentration, Lymph Node” value [1] was 165 μg equivalents/g. For the same compound, the “Radioactivity concentration, Medulla Oblongata” value [1] was 48.4 μg equivalents/g, the “Radioactivity concentration, Muscle” value [1] was 95.4 μg equivalents/g and the “Radioactivity concentration, Myocardium” value [1] was 222 μg equivalents/g. For the same compound, the “Radioactivity concentration, Nasal Turbinates” value [1] was 184 μg equivalents/g, the “Radioactivity concentration, Ocular - Lens” value [1] was 5.05 μg equivalents/g and the “Radioactivity concentration, Ocular - Uveal Tract” value [1] was 59.6 μg equivalents/g. For the same compound, the “Radioactivity concentration, Ocular - Vitreous Body” value [1] was 2.01 μg equivalents/g, the “Radioactivity concentration, Ocular - Whole Eye” value [1] was 15.8 μg equivalents/g and the “Radioactivity concentration, Olfactory Bulb” value [1] was 35.0 μg equivalents/g. The “Radioactivity concentration, Pancreas” value [1] was 312 μg equivalents/g, the “Radioactivity concentration, Parotid Gland” value [1] was 257 μg equivalents/g and the “Radioactivity concentration, Pineal Gland” value [1] was 156 μg equivalents/g. For the same compound, the “Radioactivity concentration, Pituitary Gland” value [1] was 226 μg equivalents/g, the “Radioactivity concentration, Prostate” value [1] was 72.1 μg equivalents/g and the “Radioactivity concentration, Renal Cortex” value [1] was 244 μg equivalents/g. For the same compound, the “Radioactivity concentration, Renal Medulla” value [1] was 183 μg equivalents/g, the “Radioactivity concentration, Salivary Gland” value [1] was 271 μg equivalents/g and the “Radioactivity concentration, Seminal Vesicles” value [1] was 60.7 μg equivalents/g. The “Radioactivity concentration, Skin - Non-Pigmented” value [1] was 101 μg equivalents/g, the “Radioactivity concentration, Small Intestines” value [1] was 164 μg equivalents/g and the “Radioactivity concentration, Spinal Cord” value [1] was 51.2 μg equivalents/g. For the same compound, the “Radioactivity concentration, Spleen” value [1] was 209 μg equivalents/g, the “Radioactivity concentration, Stomach” value [1] was 78.9 μg equivalents/g and the “Radioactivity concentration, Testis” value [1] was 47.2 μg equivalents/g. The “Radioactivity concentration, Thalamus” value [1] was 42.3 μg equivalents/g, the “Radioactivity concentration, Thymus” value [1] was 131 μg equivalents/g and the “Radioactivity concentration, Thyroid” value [1] was 297 μg equivalents/g. For the same compound, the “Radioactivity concentration, Whole Brain” value [1] was 43.7 μg equivalents/g, the “Radioactivity concentration, Adipose - Brown” value [2] was 1301 μg equivalents/g and the “Radioactivity concentration, Adipose - Brown (Vessel Wall)” value [2] was 1249 μg equivalents/g. The “Radioactivity concentration, Adipose - Subcutaneous” value [2] was 1373 μg equivalents/g, the “Radioactivity concentration, Adipose - Visceral” value [2] was 1265 μg equivalents/g and the “Radioactivity concentration, Adrenal Gland” value [2] was 1636 μg equivalents/g. The “Radioactivity concentration, Bladder Wall” value [2] was 101 μg equivalents/g, the “Radioactivity concentration, Blood - QWBA” value [2] was 29.5 μg equivalents/g and the “Radioactivity concentration, Bone Marrow” value [2] was 77.3 μg equivalents/g. For the same compound, the “Radioactivity concentration, Bone Surface” value [2] was 10.5 μg equivalents/g, the “Radioactivity concentration, Cerebellum” value [2] was 55.8 μg equivalents/g and the “Radioactivity concentration, Cerebrum” value [2] was 47.5 μg equivalents/g. The “Radioactivity concentration, Choroid Plexus” value [2] was 121 μg equivalents/g, the “Radioactivity concentration, Colliculus” value [2] was 67.3 μg equivalents/g and the “Radioactivity concentration, Diaphragm” value [2] was 125 μg equivalents/g. The “Radioactivity concentration, Esophagus” value [2] was 87.1 μg equivalents/g, the “Radioactivity concentration, Exorbital Lacrimal Gland” value [2] was 71.0 μg equivalents/g and the “Radioactivity concentration, Gastric Mucosa” value [2] was 210 μg equivalents/g. The “Radioactivity concentration, Harderian Gland” value [2] was 47.9 μg equivalents/g, the “Radioactivity concentration, Intra-Orbital Lacrimal Gland” value [2] was 76.5 μg equivalents/g and the “Radioactivity concentration, Kidney” value [2] was 238 μg equivalents/g. For the same compound, the “Radioactivity concentration, Large Intestines” value [2] was 94.3 μg equivalents/g, the “Radioactivity concentration, Liver” value [2] was 129 μg equivalents/g and the “Radioactivity concentration, Lung” value [2] was 191 μg equivalents/g. The “Radioactivity concentration, Lymph Node” value [2] was 127 μg equivalents/g, the “Radioactivity concentration, Medulla Oblongata” value [2] was 51.8 μg equivalents/g and the “Radioactivity concentration, Muscle” value [2] was 97.9 μg equivalents/g. For the same compound, the “Radioactivity concentration, Myocardium” value [2] was 172 μg equivalents/g, the “Radioactivity concentration, Nasal Turbinates” value [2] was 80.2 μg equivalents/g and the “Radioactivity concentration, Ocular - Lens” value [2] was 6.92 μg equivalents/g. For the same compound, the “Radioactivity concentration, Ocular - Uveal Tract” value [2] was 68.9 μg equivalents/g, the “Radioactivity concentration, Ocular - Vitreous Body” value [2] was 2.06 μg equivalents/g and the “Radioactivity concentration, Ocular - Whole Eye” value [2] was 18.2 μg equivalents/g. For the same compound, the “Radioactivity concentration, Olfactory Bulb” value [2] was 42.2 μg equivalents/g, the “Radioactivity concentration, Pancreas” value [2] was 333 μg equivalents/g and the “Radioactivity concentration, Parotid Gland” value [2] was 220 μg equivalents/g. The “Radioactivity concentration, Pineal Gland” value [2] was 179 μg equivalents/g, the “Radioactivity concentration, Pituitary Gland” value [2] was 191 μg equivalents/g and the “Radioactivity concentration, Prostate” value [2] was 84.8 μg equivalents/g. The “Radioactivity concentration, Renal Cortex” value [2] was 250 μg equivalents/g, the “Radioactivity concentration, Renal Medulla” value [2] was 186 μg equivalents/g and the “Radioactivity concentration, Salivary Gland” value [2] was 227 μg equivalents/g. The “Radioactivity concentration, Seminal Vesicles” value [2] was 54.7 μg equivalents/g, the “Radioactivity concentration, Skin - Non-Pigmented” value [2] was 129 μg equivalents/g and the “Radioactivity concentration, Small Intestines” value [2] was 112 μg equivalents/g. The “Radioactivity concentration, Spinal Cord” value [2] was 53.0 μg equivalents/g, the “Radioactivity concentration, Spleen” value [2] was 147 μg equivalents/g and the “Radioactivity concentration, Stomach” value [2] was 109 μg equivalents/g. For the same compound, the “Radioactivity concentration, Testis” value [2] was 43.3 μg equivalents/g, the “Radioactivity concentration, Thalamus” value [2] was 45.4 μg equivalents/g and the “Radioactivity concentration, Thymus” value [2] was 107 μg equivalents/g. The “Radioactivity concentration, Thyroid” value [2] was 259 μg equivalents/g, the “Radioactivity concentration, Whole Brain” value [2] was 47.3 μg equivalents/g and the “Decline of radioactivity from peak concentration, subcutaneous adipose” value (by 96 HPD, 15 daily doses) was about 1.1 fold. The “Decline of radioactivity from peak concentration, visceral adipose” value (by 96 HPD, 15 daily doses) was about 1.2 fold and the “Uptake in the brain following 15 doses versus single dose, on average” value (rat, in vivo) was 16-18 times.
